# Measurements from patent publication US20250171438A1 (Agios Pharmaceuticals, Inc., priority 2022, published 2025).
# Molecular target: T1, human PAH with the R408W mutation (Homo sapiens, UniProt P00439, R408W)
# T1 construct: expressed in transfected cells
# T1 sequence (P00439 1-452 R408W): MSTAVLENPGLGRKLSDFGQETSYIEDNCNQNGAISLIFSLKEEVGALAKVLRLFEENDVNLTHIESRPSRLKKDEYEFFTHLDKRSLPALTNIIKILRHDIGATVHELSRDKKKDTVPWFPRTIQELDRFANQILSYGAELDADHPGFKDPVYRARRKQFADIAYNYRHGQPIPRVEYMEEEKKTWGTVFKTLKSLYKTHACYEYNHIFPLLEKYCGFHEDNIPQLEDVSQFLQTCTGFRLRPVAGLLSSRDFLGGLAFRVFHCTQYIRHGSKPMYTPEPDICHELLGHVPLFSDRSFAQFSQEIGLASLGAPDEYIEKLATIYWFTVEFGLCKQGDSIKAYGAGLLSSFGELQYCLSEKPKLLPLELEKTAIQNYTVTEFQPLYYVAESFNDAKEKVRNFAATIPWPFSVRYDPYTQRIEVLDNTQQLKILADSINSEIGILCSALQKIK
# Assay: Cell Based Phenylalanine Flux Assay
# Conditions: A375 cells expressing human R408W PAH; 24 hrs compound incubation; 13C-Tyrosine by LC-MS; average where tested multiple times; read-out: AC50
row,SMILES,AC50 [µM]
1,"O=C(c1nnc(OCCC(F)(F)F)o1)N1CCc2[nH]cnc2[C@@H]1c1nc2ccccc2s1 [Example 1789, (R)-(4-(benzo[d]thiazol-2-yl)-6,7-dihydro-1H-imidazo[4,5-c]pyridin-5(4H)-yl)(5-(3,3,3-trifluoropropoxy)-1,3,4-oxadiazol-2-yl)methanone]",1 to 5
2,Cn1ccc(-c2nnc(C(=O)N3CCc4[nH]cnc4[C@H]3c3nc4ccccc4s3)o2)n1 [Example 1805],< 0.5
3,"O=C(CC1CC(F)(F)C1)N1CCc2[nH]cnc2[C@@H]1c1nc2ccccc2s1 [Example 1278, (R)-1-(4-(benzo[d]thiazol-2-yl)-6,7-dihydro-1H-imidazo[4,5-c]pyridin-5(4H)-yl)-2-(3,3-difluorocyclobutyl)ethanone]",1 to 5
4,"O=C(c1cnn2ccccc12)N1CCc2[nH]cnc2[C@H]1c1nc2ccc(F)cc2s1 [Example 1099, (S)-(4-(6-fluorobenzo[d]thiazol-2-yl)-6,7-dihydro-1H-imidazo[4,5-c]pyridin-5(4H)-yl)(pyrazolo[1,5-a]pyridin-3-yl)methanone]",1 to 5
5,"O=C(c1nnc(C2CC2)o1)N1CCc2[nH]cnc2[C@@H]1c1nc2ccccc2s1 [Example 1364, (R)-(4-(benzo[d]thiazol-2-yl)-6,7-dihydro-1H-imidazo[4,5-c]pyridin-5(4H)-yl)(5-cyclopropyl-1,3,4-oxadiazol-2-yl)methanone]",1 to 5
6,"Cc1cccc2sc([C@H]3c4nc[nH]c4CCN3C(=O)c3cncs3)nc12 [Example 1306, (R)-(4-(4-methylbenzo[d]thiazol-2-yl)-6,7-dihydro-1H-imidazo[4,5-c]pyridin-5(4H)-yl)(thiazol-5-yl)methanone]",1 to 5
7,"CC(C)(O)c1nc(C(F)F)c(C(=O)N2CCc3[nH]cnc3[C@@H]2c2nc3ccccc3s2)s1 [Example 2106, (R)-(4-(benzo[d]thiazol-2-yl)-6,7-dihydro-1H-imidazo[4,5-c]pyridin-5(4H)-yl)(4-(difluoromethyl)-2-(2-hydroxypropan-2-yl)thiazol-5-yl)methanone]",< 0.5
8,"CC(C)(C)CCC(=O)N1CCc2[nH]cnc2[C@H]1c1nc2ccccc2[nH]1 [Example 907, (S)-1-(4-(1H-benzo[d]imidazol-2-yl)-6,7-dihydro-1H-imidazo[4,5-c]pyridin-5(4H)-yl)-4,4-dimethylpentan-1-one]",< 0.5
9,"O=C(c1cnn(C(F)F)c1)N1CCc2[nH]cnc2[C@@H]1c1nc2ccccc2s1 [Example 1410, (R)-(4-(benzo[d]thiazol-2-yl)-6,7-dihydro-1H-imidazo[4,5-c]pyridin-5(4H)-yl)(1-(difluoromethyl)-1H-pyrazol-4-yl)methanone]",> 5
10,CC(C)(O)c1nc(Br)c(C(=O)N2CCc3[nH]cnc3[C@H]2c2nc3ccccc3s2)s1 [Example 2107],< 0.5
11,O=C(c1cncs1)N1CCc2[nH]cnc2[C@H]1c1nc2ccccc2s1 [Example 1059],< 0.5
12,"CC1(C)CCC(c2ncc(C(=O)N3CCc4[nH]cnc4[C@@H]3c3nc4ccccc4s3)s2)CC1 [Example 1354, (R)-(4-(benzo[d]thiazol-2-yl)-6,7-dihydro-1H-imidazo[4,5-c]pyridin-5(4H)-yl)(2-(4,4-dimethylcyclohexyl)thiazol-5-yl)methanone]",1 to 5
13,O=C(c1cnc(C(F)(F)F)o1)N1CCc2[nH]cnc2[C@H]1c1nc2ccccc2s1 [Example 1347],< 0.5
14,O=C(c1scnc1C(F)(F)F)N1CCc2[nH]cnc2[C@H]1c1nc2ccccc2s1 [Example 1341],< 0.5
15,O=C(c1nnc(NC2CC2)o1)N1CCc2[nH]cnc2[C@H]1c1nc2ccccc2s1 [Example 1593],0.5 to 1
16,C[C@H](O)c1nc(C(F)F)c(C(=O)N2CCc3[nH]cnc3[C@H]2c2nc3ccccc3s2)o1 [Example 2095],< 0.5
17,"Cc1nc(C(C)(C)F)oc1C(=O)N1CCc2[nH]cnc2[C@@H]1c1nc2ccccc2s1 [Example 1498, (R)-(4-(benzo[d]thiazol-2-yl)-6,7-dihydro-1H-imidazo[4,5-c]pyridin-5(4H)-yl)(2-(2-fluoropropan-2-yl)-4-methyloxazol-5-yl)methanone]",1 to 5
18,COc1cccc(/C=C/C(=O)N2CCc3[nH]cnc3[C@H]2c2nc3ccccc3s2)c1 [Example 1011],0.5 to 1
19,"O=C(c1oc(N2CCOCC2)nc1C(F)(F)F)N1CCc2[nH]cnc2[C@@H]1c1nc2c(F)cccc2s1 [Example 1598, (R)-(4-(4-fluorobenzo[d]thiazol-2-yl)-6,7-dihydro-1H-imidazo[4,5-c]pyridin-5(4H)-yl)(2-morpholino-4-(trifluoromethyl)oxazol-5-yl)methanone]",< 0.5
20,"Cn1ccc(-c2nnc(C(=O)N3CCc4[nH]cnc4[C@@H]3c3nc4ccccc4s3)o2)n1 [Example 1806, (R)-(4-(benzo[d]thiazol-2-yl)-6,7-dihydro-1H-imidazo[4,5-c]pyridin-5(4H)-yl)(5-(1-methyl-1H-pyrazol-3-yl)-1,3,4-oxadiazol-2-yl)methanone]",1 to 5
21,"O=C(c1ncc(Cl)s1)N1CCc2[nH]cnc2[C@@H]1c1nc2cc(F)ccc2s1 [Example 1262, (R)-(5-chlorothiazol-2-yl)(4-(5-fluorobenzo[d]thiazol-2-yl)-6,7-dihydro-1H-imidazo[4,5-c]pyridin-5(4H)-yl)methanone]",1 to 5
22,"CC(C)(O)c1nc(C(F)F)c(C(=O)N2CCc3[nH]cnc3[C@H]2c2nc3c(F)cccc3s2)s1 [Example 2085, (S)-(4-(difluoromethyl)-2-(2-hydroxypropan-2-yl)thiazol-5-yl)(4-(4-fluorobenzo[d]thiazol-2-yl)-6,7-dihydro-1H-imidazo[4,5-c]pyridin-5(4H)-yl)methanone]",< 0.5
23,"C[C@@H](O)c1nc(C(F)F)c(C(=O)N2CCc3[nH]cnc3[C@@H]2c2nc3ccccc3s2)o1 [Example 2092, ((R)-4-(benzo[d]thiazol-2-yl)-6,7-dihydro-1H-imidazo[4,5-c]pyridin-5(4H)-yl)(4-(difluoromethyl)-2-((R)-1-hydroxyethyl)oxazol-5-yl)methanone]",0.5 to 1
24,"N#Cc1ccn2ncc(C(=O)N3CCc4[nH]cnc4[C@@H]3c3nc4ccc(F)cc4s3)c2c1 [Example 1156, (R)-3-(4-(6-fluorobenzo[d]thiazol-2-yl)-4,5,6,7-tetrahydro-1H-imidazo[4,5-c]pyridine-5-carbonyl)pyrazolo[1,5-a]pyridine-5-carbonitrile]",> 5
25,"O=C(c1nnc(C2CC(F)(F)C2)o1)N1CCc2[nH]cnc2[C@H]1c1nc2c(F)cccc2s1 [Example 1892, (S)-(5-(3,3-difluorocyclobutyl)-1,3,4-oxadiazol-2-yl)(4-(4-fluorobenzo[d]thiazol-2-yl)-6,7-dihydro-1H-imidazo[4,5-c]pyridin-5(4H)-yl)methanone]",0.5 to 1
26,O=C(c1cnn(-c2ccccn2)c1Cl)N1CCc2[nH]cnc2[C@H]1c1nc2c(F)cccc2s1 [Example 1765],0.5 to 1
27,"O=C(c1nnc(-c2cnn(C(F)F)c2)o1)N1CCc2[nH]cnc2[C@@H]1c1nc2ccccc2s1 [Example 1778, (R)-(4-(benzo[d]thiazol-2-yl)-6,7-dihydro-1H-imidazo[4,5-c]pyridin-5(4H)-yl)(5-(1-(difluoromethyl)-1H-pyrazol-4-yl)-1,3,4-oxadiazol-2-yl)methanone]",> 5

# Same assay, conditions: A375 cells expressing human R408W PAH; 24 hrs with compound; 13C-Tyrosine by LC-MS; average where tested multiple times; read-out: AC50
row,SMILES,AC50 [µM]
1,Cn1nc(C(C)(C)O)nc1C(=O)N1CCc2[nH]cnc2C1c1nc2ccccc2s1 (stereo not shown),1 to 5
2,"O=C(c1cnco1)N1CCc2[nH]cnc2[C@H]1c1nc2ccccc2[nH]1 [(S)-(4-(1H-benzo[d]imidazol-2-yl)-1,4,6,7-tetrahydro-5H-imidazo[4,5-c]pyridin-5-yl)(oxazol-5-yl)methanone]",1 to 5
3,"Cc1ncc(CC(=O)N2CCc3[nH]cnc3[C@H]2c2nc3ccccc3[nH]2)o1 [(S)-1-(4-(1H-benzo[d]imidazol-2-yl)-6,7-dihydro-1H-imidazo[4,5-c]pyridin-5(4H)-yl)-2-(2-methyloxazol-5-yl)ethanone]",> 5
4,"O=C(c1ccccn1)N1CCc2[nH]cnc2[C@H]1c1nc2ccccc2[nH]1 [(S)-(4-(1H-benzo[d]imidazol-2-yl)-1,4,6,7-tetrahydro-5H-imidazo[4,5-c]pyridin-5-yl)(pyridin-2-yl)methanone]",1 to 5
5,O=C(c1ccon1)N1CCc2[nH]cnc2C1c1nc2ccc(F)cc2[nH]1 (stereo not shown),1 to 5
6,c1ccc2oc(N3CCc4[nH]cnc4C3c3nc4ccccc4s3)nc2c1 (stereo not shown),1 to 5
7,Cc1nc(C(C)(C)O)oc1C(=O)N1CC2(CC2)c2[nH]cnc2C1c1nc2ccccc2s1 (stereo not shown),1 to 5
8,CC1CN(C(=O)c2cnco2)C(c2nc3c(F)cccc3s2)c2nc[nH]c21 (stereo not shown),1 to 5
9,"Cc1nc(C(C)(C)O)oc1C(=O)N1CCc2[nH]cnc2[C@H]1c1nc2ccccc2[nH]1 [(S)-(4-(1H-benzo[d]imidazol-2-yl)-6,7-dihydro-1H-imidazo[4,5-c]pyridin-5(4H)-yl)(2-(2-hydroxypropan-2-yl)-4-methyloxazol-5-yl)methanone]",> 5
10,O=C(c1cn[nH]c1)N1CCc2[nH]cnc2C1c1nc2ccccc2[nH]1 (stereo not shown),> 5
11,"O=C(c1cnc(-c2ccccn2)o1)N1CCc2[nH]cnc2[C@H]1c1nc2ccccc2[nH]1 [(S)-(4-(1H-benzo[d]imidazol-2-yl)-6,7-dihydro-1H-imidazo[4,5-c]pyridin-5(4H)-yl)(2-(pyridin-2-yl)oxazol-5-yl)methanone]",1 to 5
12,Cc1nc(-c2ccccn2)c(C(=O)N2CCc3[nH]cnc3C2c2nc3ccccc3s2)o1 (stereo not shown),1 to 5
13,O=C(Cc1nccs1)N1CCc2[nH]cnc2C1c1nc2ccc(F)cc2[nH]1 (stereo not shown),1 to 5
